{
  "source": "patent US5952189A",
  "about": "(priority 1997, dated 1999)",
  "key": {"U937 cells [1]": {"system": "U937 cells", "assay": "cells", "format": "cell-based, human", "details": "for Effect on DNA fragmentation induced by TNF or UV light: result in words"}, "BT-20": {"system": "BT-20", "format": "cell-based, human", "details": "for % DNA fragmentation: BT-20, UV 0.5 J/cm^2, 8 h, no inhibitor 44 ± 3.6"}, "3T3": {"system": "3T3", "assay": "Inhibition of UV-induced DNA fragmentation in 3T3 cells", "format": "cell-based, murine", "details": "UV 0.5 J/cm^2, 8 h, no inhibitor 38 ± 1.9", "protocol": "(§1) To determine if these findings were unique to U937 or if other cell lines also require protease activity to undergo apoptosis, the effects of several inhibitors on apoptosis induced by UV light in the human mammary carcinoma, BT-20, the murine fibroblast cell line, 3T3, and the human myeloid leukemia, HL-60 were tested. For the BT-20 and 3T3 cells, target cells were pretreated for one hour (with or without inhibitors as indicated in the table) and exposed to UV light at 0.5 J/cm^2 and then incubated for eight hours prior to assessing DNA fragmentation. HL-60 cells were pretreated for one hour (with or without inhibitors as indicated in the table) and exposed to UV at 0.2 J/cm^2 and then incubated for two hours prior to assessing DNA fragmentation.\n(§2) DNA fragmentation assays were carried out according to the protocol of Wright S. C., et al. (1,992) J. Cell. Biochem. 48, 344-355. Target cells were labeled with ^3 H-thymidine and plated in triplicate in flat bottom microtiter plates. Cells were incubated for the indicated length of time for each experiment in the presence of TNF or various inhibitors. In some experiments, cells were treated with UV light at 245 nm using a UV Crosslinker (Fisher Scientific). Assays were harvested and counted on a Packard matrix 96 beta counter. Percent DNA fragmentation was calculated as for the nuclear assay described in Example 3. In assays to test the effects of various inhibitors, the pH of extra wells containing assay buffer, target cells, and each inhibitor was always checked at the beginning and end of each assay to assure that the pH remained at 7.5."}, "HL-60": {"system": "HL-60", "assay": "Inhibition of UV-induced DNA fragmentation in HL-60 cells", "format": "cell-based, human", "details": "UV 0.2 J/cm^2, 2 h, no inhibitor 49 ± 2.0", "protocol": "as §1\nas §2, with “In assays to test the effects of various inhibitors, the pH of extra wells containing assay buffer, target cells, and each inhibitor was always checked at the beginning and end of each assay to assure that the pH remained at 7.5.” left out"}, "U937 cells [2]": {"system": "U937 cells", "assay": "Visualization of DNA fragmentation in U937 cells by agarose gel electrophoresis", "format": "cell-based, human", "protocol": "In FIG. 2, U937 cells were pretreated with and without TPCK 10 μM for 30 min, exposed to UV light 0.15 J/cm^2, incubated another 2.5 h, then the DNA extracted and analyzed by agarose gel electrophoresis. Lane 1 of FIG. 2 contains molecular weight markers, lane 2 contains untreated U937, lane 3 contains U937 treated with TPCK, lane 4 contains U937 treated with UV light, lane 5 contains U937 treated with TPCK and UV light.\nDNA fragmentation was carried out according to the procedure of Example 2. After the desired treatments, the cells were lysed and debris was removed by centrifugation at 13,000×g for 10 sec. DNA in the supernatant was ethanol precipitated after phenol extraction. Equivalent amounts of material from a fixed number of cells were loaded and electrophoresed on a 1.0% agarose slab gel. DNA was visualized by ethidium bromide staining."}, "isolated U937 nuclei": {"system": "isolated U937 nuclei", "assay": "DNA fragmentation assay using isolated U937 nuclei", "format": "cell-based, human", "details": "inhibitor 50 μM (FIG. 6B)", "protocol": "U937 cells were labeled with ^3 H-thymidine by culturing overnight with isotope at 0.5 μCi/ml. The cells were pelleted, washed once, and the cytoplasmic membrane lysed by resuspending the cells in assay buffer (50 mM Tris, 250 mM sucrose 10 mM MgSO4, pH 7.5) plus 0.02% NP-40. Nuclei were then pelleted and resuspended in assay buffer at 1×10^6 /ml. The assay was set up in triplicate in flat bottom microtiter plates under sterile conditions. Nuclei (0.05 ml) were mixed with 0.05 ml of sample diluted in 50 mM Tris pH 7.5 or buffer alone to determine total counts. Plates were incubated for 5 h at 37° C. and then harvested by the addition of 0.1 ml of harvesting buffer (10 mM Tris, 10 mM EDTA, 0.3% Triton X-100, pH 7.5). Plates were harvested by filtration onto glass fiber paper and counted on a Packard Matrix 96 beta counter. Percent DNA fragmentation was calculated as follows: […]"}, "[3]": {"system": "chymotrypsin-like enzymes", "details": "cited from earlier work"}, "HL-60 cells": {"system": "HL-60 cells", "details": "Bruno et al. 1992; cited from earlier work"}, "[4]": {"details": "Poe et al. 1991; cited from earlier work"}, "[5]": {"system": "TNF-induced hepatocyte apoptosis", "assay": "TNF-induced hepatotoxicity in mice (serum transaminases)", "format": "in vivo, Balb/c mice", "protocol": "In this example the concept that a protease inhibitor such as DK120 may attenuate inappropriate apoptosis that causes tissue damage in systemic inflammatory response syndrome (SIRS) was tested. TNF-induced hepatocyte apoptosis in mice was performed as described by Leist et al. ((1995) J. Immunol. 154:1778-1786). Briefly, Balb/c mice were injected ip with […] murine TNF combined with […] Actinomycin D/mouse. Twelve h later, mice were anesthetized and bled from the heart to measure serum transaminase levels, which are standard clinically used indicators of liver damage. Mice that were treated with protease inhibitors were injected ip with these compounds 30 min. prior to TNF. Alanine aminotransferase (ALT) and aspartate aminotransferase (AST) were assayed using a commercially available kit (Sigma). […] However, treatment with DK120 caused a doss-dependent decrease in serum transaminase levels. […] However, a drug that nonspecifically blocks all apoptotic pathways that normally function to maintain homeostasis may not be clinically desirable. Subsequent studies were performed to determine if DK120 could also suppress hepatocyte apoptosis in response to a different stimulus.\n^1 Mice (2 for each treatment) were injected ip +/- DK120 30 min prio\nto TNF and Actinomycin D. Twelve h later serum transaminase levels were\n(§3) To further explore the specificity of DK120 attenuation of TNF-induced hepatotoxicity, several compounds were tested that were found previously not to inhibit apoptotic protease proteolytic activity as measured against a synthetic substrate (data not shown). […] Therefore, the protection mediated by DK120 is not a property of any boron-containing molecule.\n^1 Mice (3 for each treatment) were injected ip +/- the inhibitors 30\nmin prior to TNF and Actinomycin D. Twelve h later serum transaminase"}, "apoptotic protease [6]": {"system": "apoptotic protease", "assay": "Inhibition of apoptotic protease proteolytic activity against a synthetic substrate", "format": "biochemical, human", "details": "data not shown", "protocol": "Proteolytic activity was assayed using synthetic substrates selective for different known proteases. All assays were set up by adding 0.02 ml of sample (or known enzyme as a positive control) plus 0.18 ml of appropriate substrate dissolved in PBS PH 7.5 in triplicate in flat bottom microtiter plates, incubated for the indicated length of time at room temperature, and the OD at 405 nm measured using a plate reader.\nElastase-like activity was measured using N-methoxysuccinyl-ala-ala-pro-valp-nitroanilide (SEQ ID NO: 3) (MAAPV) at 0.25 mM as a substrate. For convenience and maximum sensitivity, these assays were routinely incubated 20 h to monitor protease purification. Under these conditions, the elastase dose response was linear up to a concentration of 6.0 μg/ml (OD of 1.0), see FIG. 3C. […] In order to quantitate the activity of the purified protease, identical assays were set up but kinetic readings of OD were taken every hour from 1-6 h. One unit of enzyme was calculated as the amount of enzyme that hydrolyzes 1.0 nmol substrate/h.\nas §3"}, "apoptotic protease [7]": {"system": "apoptotic protease", "details": "unspecified protease; cited from earlier work"}},
  "note": "“Also recorded” adds a separate entry of the source. Where two headings read alike, the source gives them in different places.",
  "data": [
    {"molecule": "Cc1ccc(S(=O)(=O)N[C@@H](Cc2ccccc2)C(=O)CCl)cc1", "note": "[TPCK, N-1-tosylamide-2-phenylethylchloromethyl ketone]", "values": [
      {"measurement": "IC50", "setting": "U937 cells [1]; Homo sapiens, U-937, read-out: IC50 (Active Concentration), TNF and UV-light induced apoptosis", "result": 2, "unit": "µM"},
      {"measurement": "Concentration of maximum suppression of DNA fragmentation", "setting": "U937 cells [1]; U937, TNF 1.0 ng/ml plus cycloheximide or UV 0.1 J/cm^2, 1 h pretreatment (FIG. 1)", "result": 2.0, "unit": "µM"},
      {"measurement": "Effect on DNA fragmentation induced by TNF or UV light", "setting": "U937 cells [1]; U937 cells", "result": "suppressed DNA fragmentation; also recorded: dose-dependently inhibit DNA fragmentation"},
      {"measurement": "% DNA fragmentation", "setting": "BT-20; inhibitor 1 μM", "result": "19 ± 5.5", "unit": "%"},
      {"measurement": "% DNA fragmentation", "setting": "BT-20; inhibitor 5 μM", "result": "0 ± 0", "unit": "%"},
      {"measurement": "Effect on UV-induced DNA fragmentation", "setting": "BT-20; summary of Table 2 (BT-20, 3T3, HL-60)", "result": "effectively blocked DNA fragmentation"},
      {"measurement": "% DNA fragmentation", "setting": "3T3; inhibitor 1 μM", "result": "32 ± 1.1", "unit": "%"},
      {"measurement": "% DNA fragmentation", "setting": "3T3; inhibitor 5 μM", "result": "18 ± 0.8", "unit": "%"},
      {"measurement": "% DNA fragmentation", "setting": "HL-60; inhibitor 1 μM", "result": "19 ± 2.0", "unit": "%"},
      {"measurement": "% DNA fragmentation", "setting": "HL-60; inhibitor 5 μM", "result": "1 ± 2.3", "unit": "%"},
      {"measurement": "Effect on UV light-induced DNA fragmentation, agarose gel", "setting": "U937 cells [2]; TPCK 10 μM 30 min, UV 0.15 J/cm^2, 2.5 h", "result": "completely abolished UV light-induced DNA fragmentation"},
      {"measurement": "DNA fragments on agarose gel, compound alone", "setting": "U937 cells [2]; TPCK alone, no UV", "result": "no DNA fragments"},
      {"measurement": "Inhibition of nuclear DNA fragmenting activity of protease from UV-treated cells", "setting": "isolated U937 nuclei", "result": "inhibited"},
      {"measurement": "Inhibition of chymotrypsin / chymotrypsin-like enzymes", "setting": "[3]", "result": "potent inhibitor of chymotrypsin-like enzymes"},
      {"measurement": "Effect on chemotherapeutic drug-induced apoptosis", "setting": "HL-60 cells", "result": "inhibits chemotherapeutic drug-induced apoptosis"}
    ]},
    {"molecule": "human granzyme B: serine protease of cytotoxic lymphocyte granules", "values": [
      {"measurement": "Activity on methoxysuccinyl-ala-ala-pro-val-thiobenzyl ester", "setting": "[4]", "result": "inactive"}
    ]},
    {"molecule": "isopropylboronic acid [IBA]", "values": [
      {"measurement": "Inactive Compounds, Highest Concentration Tested (highest nontoxic concentration, inactive)", "setting": "U937 cells [1]; U937 cells, TNF and UV light, compound inactive at this concentration", "result": 20, "unit": "µM"},
      {"measurement": "Effect on DNA fragmentation induced by TNF or UV light", "setting": "U937 cells [1]; U937 cells", "result": "does not inhibit DNA fragmentation"},
      {"measurement": "Protection from TNF-induced hepatotoxicity", "setting": "[5]; Table 10, 10 mg/kg", "result": "does not protect from TNF-induced hepatotoxicity"},
      {"measurement": "ALT", "setting": "[5]; mouse, in vivo", "result": "393 +/- 52 U/ml"},
      {"measurement": "Inhibition of apoptotic protease proteolytic activity", "setting": "apoptotic protease [6]", "result": "no protease inhibitory activity"},
      {"measurement": "Protease inhibitory activity", "setting": "apoptotic protease [7]", "result": "non-inhibitory; also recorded: devoid of protease inhibitory activity"}
    ]}
  ]
}
